Experimental data published in patent US10681909B2, “Herbicidal triazoles” (FMC Corporation, priority 2014, dated 2020).

Key:
blackgrass = assay: Test C preemergence; type: in vivo, Alopecurus myosuroides; conditions: for Plant response rating (scale of 0 to 100 where 0 is no effect and 100 is complete control): Blackgrass, preemergence; for Blackgrass plant response rating (0 to 100): Preemergence, visual rating after 13 to 15 d
From the text: (§1) Seeds of plant species selected from blackgrass (Alopecurus myosuroides), ryegrass, Italian (Italian ryegrass, Lolium multiflorum), wheat (winter wheat, Triticum aestivum), galium (catchweed bedstraw, Galium aparine), corn (Zea mays), crabgrass, large (large crabgrass, Digitaria sanguinalis), foxtail, giant, (giant foxtail, Setaria faberii), johnsongrass (Sorghum halepense), lambsquarters (Chenopodium album), morningglory (Ipomoea coccinea), nutsedge, yellow (yellow nutsedge, Cyperus esculentus), pigweed (Amaranthus retroflexus), ragweed (common ragweed, Ambrosia elatior), soybean (Glycine max), barnyardgrass (Echinochloa crus-galli), oilseed rape (Brassica napus), waterhemp (common waterhemp, Amaranthus rudis), and velvetleaf (Abutilon theophrasti) were planted into a blend of loam soil and sand and treated preemergence with test chemicals formulated in a non-phytotoxic solvent mixture which included a surfactant. At the same time, plants selected from these crop and weed species and also chickweed (common chickweed, Stellaria media), oat, wild (wild oat, Avena fatua), and kochia (Kochia scoparia), were planted in pots containing Sunshine Redi-Earth® planting medium comprising spaghnum peat moss, vermiculite, starter nutrients and dolomitic limestone and treated with postemergence applications of test chemicals formulated in the same manner. Plants ranged in height from 2 to 18 cm (1- to 4-leaf stage) for postemergence treatments. […] A dash (-) response means no test result.

canarygrass [1] = assay: Test D preemergence; type: in vivo, Phalaris minor; conditions: scale 0 to 100
From the text: (§2) Seeds of plant species selected from bluegrass (annual bluegrass, Poa annua), blackgrass (Alopecurus myosuroides), canarygrass (Phalaris minor), chickweed (common chickweed, Stellaria media), galium (catchweed bedstraw, Galium aparine), bromegrass, down (downy bromegrass, Bromus tectorum), Russian thistle (Salsola kali), field poppy (Papaver rhoeas), field violet (Viola arvensis), foxtail, green (green foxtail, Setaria viridis), deadnettle (henbit deadnettle, Lamium amplexicaule), ryegrass, Ital. (Italian ryegrass, Lolium multiflorum), kochia (Kochia scoparia), lambsquarters (Chenopodium album), oilseed rape (Brassica napus), pigweed (Amaranthus retroflexus), chamomile (scentless chamomile, Matricaria inodora), speedwell (bird's-eye speedwell, Veronica persica), barley, spring (spring barley, Hordeum vulgare), wheat, spring (spring wheat, Triticum aestivum), buckwheat, wild (wild buckwheat, Polygonum convolvulus), wild mustard (Sinapis arvensis), oat, wild (wild oat, Avena fatua), radish, wild (wild radish, Raphanus raphanistrum), […]), barley, winter (winter barley, Hordeum vulgare), and wheat, winter (winter wheat, Triticum aestivum) were planted into a silt loam soil and treated preemergence with test chemicals formulated in a non-phytotoxic solvent mixture which included a surfactant. At the same time, these species were planted in pots containing Sunshine Redi-Earth® planting medium comprising spaghnum peat moss, vermiculite, starter nutrients and dolomitic limestone and treated with postemergence applications of the test chemicals formulated in the same manner. Plants ranged in height from 2 to 18 cm (1- to 4-leaf stage). Treated plants and controls were maintained in a controlled growth environment for 14 to 21 d after which time all species were compared to controls and visually evaluated. […] A dash (-) response means no test result.

bluegrass = assay: Test D postemergence; type: in vivo, Poa annua; conditions: scale 0 to 100
From the text: as §2

wheat, winter = assay: Test D postemergence; type: in vivo, Triticum aestivum; conditions: scale 0 to 100
From the text: as §2

wheat, spring = assay: Test D postemergence; type: in vivo, Triticum aestivum; conditions: scale 0 to 100
From the text: as §2

buckwheat, wild = assay: Test D postemergence; type: in vivo, Polygonum convolvulus; conditions: scale 0 to 100
From the text: as §2

chickweed = assay: Test D postemergence; type: in vivo, Stellaria media; conditions: scale 0 to 100
From the text: as §2

canarygrass [2] = assay: Test D postemergence; type: in vivo, Phalaris minor; conditions: scale 0 to 100
From the text: as §2

oat, wild = assay: Test D postemergence; type: in vivo, Avena fatua; conditions: scale 0 to 100
From the text: as §2

galium = assay: Test D postemergence; type: in vivo, Galium aparine; conditions: scale 0 to 100
From the text: as §2

pigweed = assay: Test C preemergence; type: in vivo, Amaranthus retroflexus; conditions: for Plant response rating (scale of 0 to 100 where 0 is no effect and 100 is complete control): Pigweed, preemergence; for Pigweed plant response rating (0 to 100): Preemergence, visual rating after 13 to 15 d
From the text: as §1

ragweed = assay: Test A preemergence; type: in vivo, Ambrosia elatior; conditions: 0 to 100 scale (0 no effect, 100 complete control)
From the text: (§3) Seeds of plant species selected from barnyardgrass (Echinochloa crus-galli), crabgrass, large (large crabgrass, Digitaria sanguinalis), kochia (Kochia scoparia), ragweed (common ragweed, Ambrosia elatior), foxtail, giant (giant foxtail, Setaria faberii), morningglory (Ipomoea spp.), pigweed (Amaranthus retroflexus), velvetleaf (Abutilon theophrasti), ryegrass, Italian (Italian ryegrass, Lolium multiflorum), wheat (Triticum aestivum), and corn (Zea mays) were planted into a blend of loam soil and sand and treated preemergence with a directed soil spray using test chemicals formulated in a non-phytotoxic solvent mixture which included a surfactant.
(§4) At the same time, plants selected from these crop and weed species and also blackgrass (Alopecurus myosuroides), and galium (catchweed bedstraw, Galium aparine), were planted in pots containing the same blend of loam soil and sand and treated with postemergence applications of test chemicals formulated in the same manner. Plants ranged in height from 2 to 10 cm and were in the one- to two-leaf stage for the postemergence treatment. Treated plants and untreated controls were maintained in a greenhouse for approximately 10 d, after which time all treated plants were compared to untreated controls and visually evaluated for injury. Plant response ratings, summarized in Table A, are based on a 0 to 100 scale where 0 is no effect and 100 is complete control. A dash (-) response means no test result.

ryegrass, Italian = assay: Test A postemergence; type: in vivo, Lolium multiflorum; conditions: 0 to 100 scale (0 no effect, 100 complete control), approx. 10 d
From the text: as §3, §4

Compound: CCOc1nc(-c2ccc(F)cc2)nn1Cc1ccnc(C(F)(F)F)c1 [Compound 8, 4-[[5-ethoxy-3-(4-fluorophenyl)-1H-1,2,4-triazol-1-yl]methyl]-2-(trifluoromethyl)pyridine]
- Plant response rating (scale of 0 to 100 where 0 is no effect and 100 is complete control) (blackgrass; 125 g ai/ha): 90
- Plant response rating (scale of 0 to 100 where 0 is no effect and 100 is complete control) (blackgrass; 250 g ai/ha): 90
- Blackgrass plant response rating (0 to 100) (blackgrass; 31 g ai/ha): 90
- Blackgrass plant response rating (0 to 100) (blackgrass; 62 g ai/ha): 90
- Plant response rating: Canarygrass (canarygrass [1]; 31 g ai/ha): 50
- Plant response rating: Canarygrass (canarygrass [1]; 62 g ai/ha): 100
- Plant response rating: Canarygrass (canarygrass [1]; 125 g ai/ha): 100
- Plant response rating: Canarygrass (canarygrass [1]; 250 g ai/ha): 100
- Plant response rating: Bluegrass (bluegrass; 31 g ai/ha): 55
- Plant response rating: Bluegrass (bluegrass; 62 g ai/ha): 65
- Plant response rating: Bluegrass (bluegrass; 125 g ai/ha): 75
- Plant response rating: Bluegrass (bluegrass; 250 g ai/ha): 75
- Plant response rating: Wheat, Winter (wheat, winter; 31 g ai/ha): 25
- Plant response rating: Wheat, Winter (wheat, winter; 62 g ai/ha): 35
- Plant response rating: Wheat, Winter (wheat, winter; 125 g ai/ha): 35
- Plant response rating: Wheat, Winter (wheat, winter; 250 g ai/ha): 35
- Plant response rating: Wheat, Spring (wheat, spring; 31 g ai/ha): 25
- Plant response rating: Wheat, Spring (wheat, spring; 62 g ai/ha): 25
- Plant response rating: Wheat, Spring (wheat, spring; 125 g ai/ha): 35
- Plant response rating: Wheat, Spring (wheat, spring; 250 g ai/ha): 35
- Plant response rating: Buckwheat, Wild (buckwheat, wild; 31 g ai/ha): 70
- Plant response rating: Buckwheat, Wild (buckwheat, wild; 62 g ai/ha): 70
- Plant response rating: Buckwheat, Wild (buckwheat, wild; 125 g ai/ha): 95
- Plant response rating: Buckwheat, Wild (buckwheat, wild; 250 g ai/ha): 95
- Plant response rating: Chickweed (chickweed; 31 g ai/ha): 80
- Plant response rating: Chickweed (chickweed; 62 g ai/ha): 85
- Plant response rating: Chickweed (chickweed; 125 g ai/ha): 85
- Plant response rating: Chickweed (chickweed; 250 g ai/ha): 90
- Plant response rating: Canarygrass (canarygrass [2]; 31 g ai/ha): 55
- Plant response rating: Canarygrass (canarygrass [2]; 62 g ai/ha): 60
- Plant response rating: Canarygrass (canarygrass [2]; 125 g ai/ha): 65
- Plant response rating: Canarygrass (canarygrass [2]; 250 g ai/ha): 75
- Plant response rating: Oat, Wild (oat, wild; 31 g ai/ha): 35
- Plant response rating: Oat, Wild (oat, wild; 62 g ai/ha): 45
- Plant response rating: Oat, Wild (oat, wild; 125 g ai/ha): 45
- Plant response rating: Oat, Wild (oat, wild; 250 g ai/ha): 55
- Plant response rating: Galium (galium; 31 g ai/ha): 75
- Plant response rating: Galium (galium; 62 g ai/ha): 90
- Plant response rating: Galium (galium; 125 g ai/ha): 95
- Plant response rating: Galium (galium; 250 g ai/ha): 95
- Plant response rating (scale of 0 to 100 where 0 is no effect and 100 is complete control) (pigweed; 125 g ai/ha): 100
- Plant response rating (scale of 0 to 100 where 0 is no effect and 100 is complete control) (pigweed; 250 g ai/ha): 100
- Pigweed plant response rating (0 to 100) (pigweed; 31 g ai/ha): 100
- Pigweed plant response rating (0 to 100) (pigweed; 62 g ai/ha): 100

Compound: COc1nc(-c2ccc(F)cc2)nn1Cc1ccnc(C(F)(F)F)c1 [Compound 9, 4-[[3-(4-fluorophenyl)-5-methoxy-1H-1,2,4-triazol-1-yl]methyl]-2-(trifluoromethyl)pyridine]
- Plant response rating (scale of 0 to 100 where 0 is no effect and 100 is complete control) (blackgrass; 125 g ai/ha): 90
- Plant response rating (scale of 0 to 100 where 0 is no effect and 100 is complete control) (blackgrass; 250 g ai/ha): 90
- Blackgrass plant response rating (0 to 100) (blackgrass; 31 g ai/ha): 5
- Blackgrass plant response rating (0 to 100) (blackgrass; 62 g ai/ha): 85
- Plant response rating (scale of 0 to 100 where 0 is no effect and 100 is complete control) (pigweed; 125 g ai/ha): 100
- Plant response rating (scale of 0 to 100 where 0 is no effect and 100 is complete control) (pigweed; 250 g ai/ha): 98
- Pigweed plant response rating (0 to 100) (pigweed; 31 g ai/ha): 100
- Pigweed plant response rating (0 to 100) (pigweed; 62 g ai/ha): 100

Compound: CCCc1nc(-c2ccc(F)cc2)nn1Cc1ccnc(C(F)(F)F)c1 [Compound 6, 4-[[3-(4-fluorophenyl)-5-propyl-1H-1,2,4-triazol-1-yl]methyl]-2-(trifluoromethyl)pyridine]
- Plant response rating (scale of 0 to 100 where 0 is no effect and 100 is complete control) (blackgrass; 125 g ai/ha): 95
- Plant response rating (scale of 0 to 100 where 0 is no effect and 100 is complete control) (blackgrass; 250 g ai/ha): 95
- Blackgrass plant response rating (0 to 100) (blackgrass; 31 g ai/ha): 70
- Blackgrass plant response rating (0 to 100) (blackgrass; 62 g ai/ha): 90
- Plant response rating (scale of 0 to 100 where 0 is no effect and 100 is complete control) (pigweed; 125 g ai/ha): 100
- Plant response rating (scale of 0 to 100 where 0 is no effect and 100 is complete control) (pigweed; 250 g ai/ha): 100
- Pigweed plant response rating (0 to 100) (pigweed; 31 g ai/ha): 100
- Pigweed plant response rating (0 to 100) (pigweed; 62 g ai/ha): 100

Compound: COc1nc(-c2ccccc2)nn1Cc1ccnc(C(F)(F)F)c1 [Compound 32]
- Plant response rating (scale of 0 to 100 where 0 is no effect and 100 is complete control) (blackgrass; 125 g ai/ha): 10
- Plant response rating (scale of 0 to 100 where 0 is no effect and 100 is complete control) (blackgrass; 250 g ai/ha): 90
- Blackgrass plant response rating (0 to 100) (blackgrass; 31 g ai/ha): 0
- Blackgrass plant response rating (0 to 100) (blackgrass; 62 g ai/ha): 0
- Plant response rating, Ragweed (ragweed; 125 g ai/ha): 0
- Plant response rating, Ragweed (ragweed; 500 g ai/ha): 40
- Plant response rating, Ryegrass, Italian (ryegrass, Italian; 125 g ai/ha): 0
- Plant response rating, Ryegrass, Italian (ryegrass, Italian; 500 g ai/ha): 50
- Plant response rating (scale of 0 to 100 where 0 is no effect and 100 is complete control) (pigweed; 125 g ai/ha): 100
- Plant response rating (scale of 0 to 100 where 0 is no effect and 100 is complete control) (pigweed; 250 g ai/ha): 100
- Pigweed plant response rating (0 to 100) (pigweed; 31 g ai/ha): 100
- Pigweed plant response rating (0 to 100) (pigweed; 62 g ai/ha): 100

Compound: CCOc1nc(-c2ccc(Cl)cc2)nn1Cc1ccnc(C(F)(F)F)c1 [Compound 26]
- Plant response rating, Ragweed (ragweed; 31 g ai/ha): 60
- Plant response rating, Ragweed (ragweed; 125 g ai/ha): 90
- Plant response rating, Ryegrass, Italian (ryegrass, Italian; 31 g ai/ha): 20
- Plant response rating, Ryegrass, Italian (ryegrass, Italian; 125 g ai/ha): 50

Compound: COc1nc(-c2ccc(C(F)(F)F)cc2)nn1Cc1ccnc(C(F)(F)F)c1 [Compound 25]
- Plant response rating, Ragweed (ragweed; 31 g ai/ha): 10
- Plant response rating, Ragweed (ragweed; 125 g ai/ha): 20
- Plant response rating, Ryegrass, Italian (ryegrass, Italian; 31 g ai/ha): 10
- Plant response rating, Ryegrass, Italian (ryegrass, Italian; 125 g ai/ha): 30

Compound: CCCOc1nc(-c2ccccc2)nn1Cc1ccnc(C(F)(F)F)c1 [Compound 33]
- Plant response rating, Ragweed (ragweed; 125 g ai/ha): 20
- Plant response rating, Ragweed (ragweed; 500 g ai/ha): 30
- Plant response rating, Ryegrass, Italian (ryegrass, Italian; 125 g ai/ha): 10
- Plant response rating, Ryegrass, Italian (ryegrass, Italian; 500 g ai/ha): 40
